Measurements from patent publication US10538522B2, “Brassinosteroid mimetics” (The Regents of the University of California, priority 2015, dated 2020).

Experiments:
[1] = test system: seedlings treated with an inhibitor of BR synthesis (brassinazole); test: Hypocotyl length of seedlings with brassinosteroid synthesis inhibited by brassinazole (FIG. 1, FIG. 3); format: in vivo, Arabidopsis
Protocol: Seedlings were treated with an inhibitor of BR synthesis (brassinazole; (BZ)). […] This is not consistent with what is seen for Bikinin, which is a constitutive activator of BR signaling and would be independent of BR synthesis (i.e. treatment with BZ would not result in inhibition of hypocotyl length in the presence of BZ).
In FIG. 1, brassinosteroid production was limited by addition of brassinazole (BZ, which is a chemical inhibitor of brassinosteroid biosynthesis). […] In stark contrast, addition of brassinolide plus mimetic severely curtails this burst in growth because mimetic prevents the full inhibition of BIN2.

[2] = test system: bri1-6 mutant seedling; test: Growth of mutant seedling defective in brassinosteroid receptor BRI1 (FIG. 4); format: in vivo
[3] = test system: Arabidopsis seedlings; test: Hypocotyl length / plant height of seedlings treated with brassinosteroid mimetic (FIG. 1, FIG. 2); format: in vivo; conditions: versus untreated plants
Protocol: (A) Arabidopsis seedlings were grown for 7 days in light in the presence of increasing concentrations of a brassinosteroid mimetic of the disclosure. (B) a photo of seedlings grown at 0 and 20 μM of brassinosteroid mimetic.
The brassinosteroid mimetics of the disclosure were tested and shown to block ethylene response by hyperactivating brassinosteroid signaling. The application of any one of the brassinosteroid mimetics of the disclosure, which are all closely related, results in massive increases in plant size. […] Additionally, reduction of internal concentrations of brassinosteroids by inhibition of brassinosteroid biosynthesis reduces the effects of the mimetic on growth. In FIG. 1, one can see the promotive effects of F1874-0108 (inset), a brassinosteroid mimetic of the disclosure, on plant height, with chemical treated plants being almost 100% taller than untreated plants. Hyperactivation of brassinosteroid signaling represents an effective means to increase plant biomass and increase the capability of plants with regard to disease resistance and other brassinosteroid regulated phenomena.

CC(C)[C@H](C)[C@@H](O)[C@H](O)[C@@H](C)[C@H]1CC[C@H]2[C@@H]3COC(=O)[C@H]4C[C@H](O)[C@H](O)C[C@]4(C)[C@H]3CC[C@]12C [brassinolide]
increase in length of BZ seedlings ([1]; BZ treated, exogenous brassinolide added back): ~400%

CC(O)(c1ccccc1)C(Cc1ccc(Cl)cc1)n1cncn1 (centres unmarked) [brassinazole]
hypocotyl length ([1]; FIG. 3, BZ alone): shortening of the hypocotyls

O=C(O)CCC(=O)Nc1ccc(Br)cn1 [Bikinin]
activation of BR pathway / hypocotyl growth [2]: promotion of long hypocotyls independent of BR

CCOC(=O)CSc1ncnc2c1cnn2-c1ccccc1 [F1874-0108]
plant height, chemical treated plants taller than untreated plants [3]: ~100%
seedling length versus BZ treated only ([1]; BZ treated, no exogenous brassinolide added): substantially longer
